Assay results taken from PubChem BioAssay AID1918948 (Molecular Pharmacology Branch, DTP, NCI, 2023).
Several values for one entry are separate records, joined by “and”; a condition that tells them apart may be missing. Equal values may be shown once.

System: K-562 leukemia growth, % test/control
Assay: Anticancer human tumor K-562 cell line growth inhibition;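 on viability, T/C: 100% = DMSO vehicle wells and lower values mean fewer viable cells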
Details: spheroids with HUVEC and MSC; for viability, T/C: stronger effect = lower value
Method in brief: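 Complex spheroids of tumor cells with HUVEC and human MSCs, exposed to iadademstat combined with other agents. Each agent tested in half-log steps from near clinical Cmax (else 10 microM top), DMSO ≤0.25%.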

[1] = curve of first compound, second compound 0.1 µM
[2] = curve of first compound, second compound 0.316 µM
[3] = curve of first compound, second compound 1 µM
[4] = curve of first compound, second compound 3.16 µM
[5] = curve of first compound, second compound 10 µM
[6] = second compound 0.1 µM, first compound 0.00949 µM
[7] = second compound 0.1 µM, first compound 0.03 µM
[8] = second compound 0.1 µM, first compound 0.0949 µM
[9] = second compound 0.1 µM, first compound 0.3 µM
[10] = second compound 0.1 µM, first compound 0.949 µM
[11] = second compound 0.1 µM, first compound 3 µM
[12] = second compound 0.316 µM, first compound 0.00949 µM
[13] = second compound 0.316 µM, first compound 0.03 µM
[14] = second compound 0.316 µM, first compound 0.0949 µM
[15] = second compound 0.316 µM, first compound 0.3 µM
[16] = second compound 0.316 µM, first compound 0.949 µM
[17] = second compound 0.316 µM, first compound 3 µM
[18] = second compound 1 µM, first compound 0.00949 µM
[19] = second compound 1 µM, first compound 0.03 µM
[20] = second compound 1 µM, first compound 0.0949 µM
[21] = second compound 1 µM, first compound 0.3 µM
[22] = second compound 1 µM, first compound 0.949 µM
[23] = second compound 1 µM, first compound 3 µM
[24] = second compound 3.16 µM, first compound 0.00949 µM
[25] = second compound 3.16 µM, first compound 0.03 µM
[26] = second compound 3.16 µM, first compound 0.0949 µM
[27] = second compound 3.16 µM, first compound 0.3 µM
[28] = second compound 3.16 µM, first compound 0.949 µM
[29] = second compound 3.16 µM, first compound 3 µM
[30] = second compound 10 µM, first compound 0.00949 µM
[31] = second compound 10 µM, first compound 0.03 µM
[32] = second compound 10 µM, first compound 0.0949 µM
[33] = second compound 10 µM, first compound 0.3 µM
[34] = second compound 10 µM, first compound 0.949 µM
[35] = second compound 10 µM, first compound 3 µM

SMILES: NS(=O)(=O)OCC1CC(n2ccc3c(NC4CCc5ccccc54)ncnc32)CC1O (stereo unspecified) + NC1CCC(NC2CC2c2ccccc2)CC1
- IC50 [1]: 17.1 nM
- IC50 [2]: 17 nM
- IC50 [3]: 14.9 nM
- IC50 [4]: 10.9 nM
- IC50 [5]: < 9.49 nM
- viability, T/C [6]: 58.9%
- viability, T/C [7]: 36%
- viability, T/C [8]: 40.5%
- viability, T/C [9]: 27.8%
- viability, T/C [10]: 15.8%
- viability, T/C [11]: 8.88%
- viability, T/C [12]: 58.9%
- viability, T/C [13]: 36.4%
- viability, T/C [14]: 40%
- viability, T/C [15]: 21.4%
- viability, T/C [16]: 13.9%
- viability, T/C [17]: 9.49%
- viability, T/C [18]: 56.7%
- viability, T/C [19]: 36.8%
- viability, T/C [20]: 37%
- viability, T/C [21]: 24.7%
- viability, T/C [22]: 11.8%
- viability, T/C [23]: 8.79%
- viability, T/C [24]: 53.5%
- viability, T/C [25]: 33.4%
- viability, T/C [26]: 33.1%
- viability, T/C [27]: 18.8%
- viability, T/C [28]: 8.53%
- viability, T/C [29]: 5.87%
- viability, T/C [30]: 42%
- viability, T/C [31]: 22.7%
- viability, T/C [32]: 17.9%
- viability, T/C [33]: 8.46%
- viability, T/C [34]: 3.21%
- viability, T/C [35]: 1.65%

SMILES: NC1CCC(NC2CC2c2ccccc2)CC1 (stereo unspecified)
- viability, T/C (compound 0.1 µM): 99% [middle of 24 runs]
- viability, T/C (compound 0.316 µM): 100% and 101% and 98.9%
- viability, T/C (compound 1 µM): 103% [middle of 25 runs]
- viability, T/C (compound 3.16 µM): 103% [middle of 25 runs]
- viability, T/C (compound 10 µM): 100% [middle of 23 runs]
- IC50 (compound alone, run of 01/18/2022): > 10000 nM

SMILES: CCN(c1cc(-c2ccc(CN3CCOCC3)cc2)cc(C(=O)NCc2c(C)cc(C)[nH]c2=O)c1C)C1CCOCC1 + NC1CCC(NC2CC2c2ccccc2)CC1
- IC50 [1]: > 3000 nM
- IC50 [2]: > 3000 nM
- IC50 [3]: > 3000 nM
- IC50 [4]: > 3000 nM
- IC50 [5]: 2220 nM
- viability, T/C [6]: 112%
- viability, T/C [7]: 107%
- viability, T/C [8]: 106%
- viability, T/C [9]: 106%
- viability, T/C [10]: 106%
- viability, T/C [11]: 98.8%
- viability, T/C [12]: 112%
- viability, T/C [13]: 109%
- viability, T/C [14]: 107%
- viability, T/C [15]: 108%
- viability, T/C [16]: 105%
- viability, T/C [17]: 101%
- viability, T/C [18]: 113%
- viability, T/C [19]: 112%
- viability, T/C [20]: 106%
- viability, T/C [21]: 109%
- viability, T/C [22]: 105%
- viability, T/C [23]: 99.5%
- viability, T/C [24]: 113%
- viability, T/C [25]: 110%
- viability, T/C [26]: 107%
- viability, T/C [27]: 106%
- viability, T/C [28]: 104%
- viability, T/C [29]: 95%
- viability, T/C [30]: 103%
- viability, T/C [31]: 101%
- viability, T/C [32]: 93.7%
- viability, T/C [33]: 86%
- viability, T/C [34]: 69.4%
- viability, T/C [35]: 42.9%

SMILES: CC[C@@]1(O)C(=O)OCc2c1cc1n(c2=O)Cc2cc3c(CN(C)C)c(O)ccc3nc2-1 + NC1CC1c1ccc(-c2cccc(O)c2)cc1
- IC50 [1]: 7.67 nM
- IC50 [2]: 5.74 nM
- IC50 [3]: 5.4 nM
- IC50 [4]: 4.98 nM
- IC50 [5]: 4.19 nM
- viability, T/C (second compound 0.1 µM, first compound 0.000316 µM): 113%
- viability, T/C (second compound 0.1 µM, first compound 0.001 µM): 107%
- viability, T/C (second compound 0.1 µM, first compound 0.00316 µM): 61.6%
- viability, T/C (second compound 0.1 µM, first compound 0.01 µM): 50.7%
- viability, T/C (second compound 0.1 µM, first compound 0.0316 µM): 18.9%
- viability, T/C (second compound 0.1 µM, first compound 0.1 µM): 8.32%
- viability, T/C (second compound 0.316 µM, first compound 0.000316 µM): 109%
- viability, T/C (second compound 0.316 µM, first compound 0.001 µM): 106%
- viability, T/C (second compound 0.316 µM, first compound 0.00316 µM): 60.2%
- viability, T/C (second compound 0.316 µM, first compound 0.01 µM): 38.5%
- viability, T/C (second compound 0.316 µM, first compound 0.0316 µM): 13.9%
- viability, T/C (second compound 0.316 µM, first compound 0.1 µM): 5.85%
- viability, T/C (second compound 1 µM, first compound 0.000316 µM): 107%
- viability, T/C (second compound 1 µM, first compound 0.001 µM): 100%
- viability, T/C (second compound 1 µM, first compound 0.00316 µM): 59.9%
- viability, T/C (second compound 1 µM, first compound 0.01 µM): 36.5%
- viability, T/C (second compound 1 µM, first compound 0.0316 µM): 12%
- viability, T/C (second compound 1 µM, first compound 0.1 µM): 6.28%
- viability, T/C (second compound 3.16 µM, first compound 0.000316 µM): 104%
- viability, T/C (second compound 3.16 µM, first compound 0.001 µM): 99.7%
- viability, T/C (second compound 3.16 µM, first compound 0.00316 µM): 56.5%
- viability, T/C (second compound 3.16 µM, first compound 0.01 µM): 35.1%
- viability, T/C (second compound 3.16 µM, first compound 0.0316 µM): 11%
- viability, T/C (second compound 3.16 µM, first compound 0.1 µM): 6.02%
- viability, T/C (second compound 10 µM, first compound 0.000316 µM): 99.4%
- viability, T/C (second compound 10 µM, first compound 0.001 µM): 94.9%
- viability, T/C (second compound 10 µM, first compound 0.00316 µM): 52.4%
- viability, T/C (second compound 10 µM, first compound 0.01 µM): 29.4%
- viability, T/C (second compound 10 µM, first compound 0.0316 µM): 9.44%
- viability, T/C (second compound 10 µM, first compound 0.1 µM): 3.98%
